The target of one assay is Syk (Homo sapiens, UniProt P43405). Briefly: High Throughput Syk Biochemical Assay (KinEASE TR-FRET). Particulars: TABLE D, 20 μM ATP, 1 μM biotinylated peptide, 0.015 nM Syk, 30 min at room temperature, read-out: IC50. As for the experimental part: High Throughput Syk Biochemical Assay
Syk activity was measured using KinEASE (Cisbio), a time-resolved fluorescence resonance energy transfer (TR-FRET) immunoassay. In this assay. Syk-catalyzes the phosporylation of a XL665-labeled peptide substrate. Europium conjugated phospho-tyrosine specific antibody binds the resulting phosphorylated peptide. Formation of phosphorylated peptide is quantified by TR-FRET with Europium as the donor and XL665 the acceptor in a 2-step endpoint assay. In brief, test compounds serially diluted in DMSO were delivered into Corning white, low volume, non-binding 384 well plates using the Echo 550 acoustic liquid dispenser (Labcyte®). Syk enzyme and substrates were dispensed into assay plates using a Multi-Flo (Bio-Tek Instruments). […] Percent inhibition was calculated as follows: % Inhibition=100×(RatioSample−Ratio0% Inhibition)/(Ratio100% Inhibition−Ratio0% Inhibition)
(In TR-FRET formats the signal depends on donor and acceptor labels being close together.)
Turning to `COc1ccc(-c2cc3ncn(C)c3c(O[C@H](C)[C@H]3CNC(=O)C3)n2)cc1C#N`, the IC50 was determined as 16.7 nM.

Consider `C[C@@H](Oc1cc(-c2cnn(CC(F)F)c2)cc2ncsc12)[C@H]1CNC(=O)C1` (stereo in doubt) [(R)-4-((R)-1-((5-(1-(2,2-difluoroethyl)-1H-pyrazol-4-yl)benzo[d]thiazol-7-yl)oxy)ethyl)pyrrolidin-2-one], for which the IC50 was determined as 1.24 nM. For the compound `CC(C)Cn1cc(-c2cc3ncn(C)c3c(O[C@H](C)[C@H]3CNC(=O)C3)n2)cn1` [(R)-4-((R)-1-(6-(1-isobutyl-1H-pyrazol-4-yl)-3-methyl-3H-imidazo[4,5-c]pyridin-4-yloxy)ethyl)pyrrolidin-2-one], the IC50 came out at 15.9 nM. As for `COc1ccc(-c2cc3ncn(C(F)F)c3c(O[C@H](C)[C@H]3CNC(=O)C3)n2)cc1OC` [(R)-4-((R)-1-(3-(difluoromethyl)-6-(3,4-dimethoxyphenyl)-3H-imidazo[4,5-c]pyridin-4-yloxy)ethyl)pyrrolidin-2-one], the 50% inhibitory concentration (IC50) stood at 1.1 nM. Take `COc1cc(-c2cc3ncn(C)c3c(O[C@H](C)[C@H]3CNC(=O)C3)n2)ccc1C#N` [2-methoxy-4-(3-methyl-4-((R)-1-((R)-5-oxopyrrolidin-3-yl)ethoxy)-3H-imidazo[4,5-c]pyridin-6-yl)benzonitrile]: the IC50 was found to be 74.2 nM.

With `COc1ccc(-c2cc(O[C@H](C)[C@H]3CNC(=O)C3)c3sc(C)nc3c2)cc1OC` [(R)-4-((R)-1-((5-(3,4-dimethoxyphenyl)-2-methylbenzo[d]thiazol-7-yl)oxy)ethyl)pyrrolidin-2-one], the IC50 is 70 nM. The same measure, in the same setting: as for `C[C@H](Oc1cc(-c2cnc(C(C)(C)C)s2)cc2ncsc12)[C@@H]1CNC(=O)C1` (stereo in doubt) [(S)-4-((S)-1-((5-(2-(tert-butyl)thiazol-5-yl)benzo[d]thiazol-7-yl)oxy)ethyl)pyrrolidin-2-one], the figure is 1.5 nM; as for `COc1ccc(-c2cc(O[C@H](C)[C@H]3CNC(=O)C3)c3ccnn3c2)nc1OC` [(R)-4-((R)-1-((6-(5,6-dimethoxypyridin-2-yl)pyrazolo[1,5-a]pyridin-4-yl)oxy)ethyl)pyrrolidin-2-one], 4.84 nM; as for `C[C@@H](Oc1nc(-c2cnn(C)c2)cc2ncn(C)c12)[C@H]1CNC(=O)C1` [(R)-4-((R)-1-(3-methyl-6-(1-methyl-1H-pyrazol-4-yl)-3H-imidazo[4,5-c]pyridin-4-yloxy)ethyl)pyrrolidin-2-one], 24.3 nM. As for `C[C@@H](Oc1nc(-c2ccc(C#N)cc2)cc2ncn(C)c12)[C@H]1CNC(=O)C1` [4-(3-methyl-4-((R)-1-((R)-5-oxopyrrolidin-3-yl)ethoxy)-3H-imidazo[4,5-c]pyridin-6-yl)benzonitrile], the IC50 amounted to 28.4 nM. On the same count and under the same terms, in the case of `C[C@@H](Oc1nc(-c2ccc(S(=O)(=O)N(C)C)cc2)cc2ncn(C)c12)[C@H]1CNC(=O)C1` [N,N-dimethyl-4-(3-methyl-4-((R)-1-((R)-5-oxopyrrolidin-3-yl)ethoxy)-3H-imidazo[4,5-c]pyridin-6-yl)benzenesulfonamide] it was 13.4 nM; in that of `C[C@@H](Oc1nc(-c2cnn(C3CC3)c2)cc2ncn(C)c12)[C@H]1CNC(=O)C1` [(R)-4-((R)-1-(6-(1-cyclopropyl-1H-pyrazol-4-yl)-3-methyl-3H-imidazo[4,5-c]pyridin-4-yloxy)ethyl)pyrrolidin-2-one], 14 nM.

For the compound `COC[C@@H](Oc1nc(-c2cnn(C(C)(C)C)c2)cc2ncn(C)c12)[C@H]1CNC(=O)C1` [(R)-4-((S)-1-(6-(1-tert-butyl-1H-pyrazol-4-yl)-3-methyl-3H-imidazo[4,5-c]pyridin-4-yloxy)-2-methoxyethyl)pyrrolidin-2-one], the concentration for half-maximal inhibition (IC50) is 186 nM. As for `Cc1cc(-c2cc3ncn(C)c3c(O[C@H](C)[C@H]3CNC(=O)C3)n2)ccc1N(C)C` [(R)-4-((R)-1-(6-(4-(dimethylamino)-3-methylphenyl)-3-methyl-3H-imidazo[4,5-c]pyridin-4-yloxy)ethyl)pyrrolidin-2-one], the IC50 was found to be 5.31 nM. On to `C[C@@H](Oc1cc(-c2cc3c(cnn3C)s2)cc2ncsc12)[C@H]1CNC(=O)C1` [(R)-4-((R)-1-(5-(1-methyl-1H-thieno[3,2-c]pyrazol-5-yl)benzo[d]thiazol-7-yloxy)ethyl)pyrrolidin-2-one], for which the IC50 amounted to 7.68 nM.

As for `C=CC[C@@H](Oc1nc(-c2cnn(C(C)(C)C)c2)cc2ncn(C)c12)[C@H]1CNC(=O)C1`, the IC50 came to 18.9 nM. On to `Cc1nc2cc(-c3cc4ncn(C)c4c(O[C@H](C)[C@H]4CNC(=O)C4)n3)ccc2s1` [(R)-4-((R)-1-((3-methyl-6-(2-methylbenzo[d]thiazol-5-yl)-3H-imidazo[4,5-c]pyridin-4-yl)oxy)ethyl)pyrrolidin-2-one], for which the IC50 is 12.4 nM. On to `CCn1ccc(-c2cc(O[C@H](C)[C@H]3CNC(=O)C3)c3scnc3c2)n1` [(R)-4-((R)-1-((5-(1-ethyl-1H-pyrazol-3-yl)benzo[d]thiazol-7-yl)oxy)ethyl)pyrrolidin-2-one], for which the IC50 was 3.36 nM.

Still in this assay, the particulars now being: table 'ALL NEW COMPOUNDS IN 2014', 20 μM ATP, 1 μM biotinylated peptide, 0.015 nM Syk, 30 min at room temperature, read-out: Syk IC50.
Consider `C[C@@H](Oc1nc(-c2ccc(N3CCN(C4COC4)CC3)cc2)cc2ncn(CCO)c12)[C@H]1CNC(=O)C1` [(R)-4-((R)-1-((3-(2-hydroxyethyl)-6-(4-(4-(oxetan-3-yl)piperazin-1-yl)phenyl)-3H-imidazo[4,5-c]pyridin-4-yl)oxy)ethyl)pyrrolidin-2-one], for which the IC50 came to 135 nM. Turning to `C[C@@H](Oc1nc(-c2ccc(C3(O)CC3)cc2)cc2ncn(C3CC3)c12)[C@H]1CNC(=O)C1`, the IC50 stood at 8.52 nM. On the same count and under the same terms, as for `C[C@@H](Oc1nc(-c2cnc(C(F)(F)F)s2)cc2ncn(C3CC3)c12)[C@H]1CNC(=O)C1` [(R)-4-((R)-1-((3-cyclopropyl-6-(2-(trifluoromethyl)thiazol-5-yl)-3H-imidazo[4,5-c]pyridin-4-yl)oxy)ethyl)pyrrolidin-2-one], the figure is 67.7 nM. Same read-out and setting: as for `C[C@@H](Oc1cc(-c2ccccn2)cc2ncn(C3CC3)c12)[C@H]1CNC(=O)C1` [(R)-4-((R)-1-((1-cyclopropyl-5-(pyridin-2-yl)-1H-benzo[d]imidazol-7-yl)oxy)ethyl)pyrrolidin-2-one], the figure is 10.6 nM. Regarding `Cc1cc(-c2cc(O[C@H](C)[C@H]3CNC(=O)C3)c3c(c2)ncn3C2CC2)nn1C` [(R)-4-((R)-1-((1-cyclopropyl-5-(1,5-dimethyl-1H-pyrazol-3-yl)-1H-benzo[d]imidazol-7-yl)oxy)ethyl)pyrrolidin-2-one], the IC50 was 2.15 nM. Same read-out and setting: in the case of `C[C@@H](Oc1cc(-c2ccc(N3CCN(C4COC4)CC3)c(F)c2)cc2ncn(C3CC3)c12)[C@H]1CNC(=O)C1` [(R)-4-((R)-1-((1-cyclopropyl-5-(3-fluoro-4-(4-(oxetan-3-yl)piperazin-1-yl)phenyl)-1H-benzo[d]imidazol-7-yl)oxy)ethyl)pyrrolidin-2-one] it was 3.08 nM; in that of `C[C@@H](Oc1nc(-c2ccc(N3CCN(C4COC4)CC3)c(Cl)c2)cc2ncn(C3CC3)c12)[C@H]1CNC(=O)C1` [(R)-4-((R)-1-((6-(3-chloro-4-(4-(oxetan-3-yl)piperazin-1-yl)phenyl)-3-cyclopropyl-3H-imidazo[4,5-c]pyridin-4-yl)oxy)ethyl)pyrrolidin-2-one], 2.76 nM; in that of `Cc1ccc(-c2cc3ncn(C4CC4)c3c(O[C@H](C)[C@H]3CNC(=O)C3)n2)s1` [(R)-4-((R)-1-((3-cyclopropyl-6-(5-methylthiophen-2-yl)-3H-imidazo[4,5-c]pyridin-4-yl)oxy)ethyl)pyrrolidin-2-one], 7.43 nM.

What is called IC50 is the concentration that gives 50% inhibition.
